Experiments:
Experiment in all cases: relative viability (nuclei count vs DMSO), 5 days (fraction); higher = more cells survive
HCC-15 = test system: HCC-15
Summary of the method: (§1)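 Medians of duplicate plates are given as relative viability. That measure is the nuclei count in treated wells divided by the count in vehicle wells. Counts were taken on 4× images of lung cancer cell lines in 1536-well plates, 5 days after pin-tool dosing the day after seeding with one drug alone or a fixed anchor-drug dose plus five library-drug doses (not always all listed) in √10 steps.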

COR-L 105 = test system: COR-L 105
Summary of the method: as §1

HCC-78 = test system: HCC-78
Summary of the method: as §1

NCI-H1755 = test system: NCI-H1755
Summary of the method: as §1

ABC-1 = test system: ABC-1
Summary of the method: as §1

NCI-H2023 = test system: NCI-H2023
Summary of the method: as §1

NCI-H1975 = test system: NCI-H1975
Summary of the method: as §1

NCI-H358 = test system: NCI-H358
Summary of the method: as §1

EMC-BAC-2 = test system: EMC-BAC-2
Summary of the method: as §1

UMC-11 = test system: UMC-11
Summary of the method: as §1

EPLC-272H = test system: EPLC-272H
Summary of the method: as §1

NCI-H2126 = test system: NCI-H2126
Summary of the method: as §1

HOP-62 = test system: HOP-62
Summary of the method: as §1

NCI-H322M = test system: NCI-H322M
Summary of the method: as §1

NCI-H2085 = test system: NCI-H2085
Summary of the method: as §1

NCI-H3122 = test system: NCI-H3122
Summary of the method: as §1

CAL-12T = test system: CAL-12T
Summary of the method: as §1

LXF-289 = test system: LXF-289
Summary of the method: as §1

NCI-H1666 = test system: NCI-H1666
Summary of the method: as §1

NCI-H1915 = test system: NCI-H1915
Summary of the method: as §1

## COc1cc2nccc(Oc3ccc(NC(=O)Nc4cc(C)on4)c(Cl)c3)c2cc1OC [Tivozanib] + CS(=O)(=O)CCNCc1ccc(-c2ccc3ncnc(Nc4ccc(OCc5cccc(F)c5)c(Cl)c4)c3c2)o1 [Lapatinib] (partner 2 µM)
HCC-15; first compound 0.005 µM
  relative viability: 0.83
HCC-15; first compound 0.01581 µM
  relative viability: 0.899
HCC-15; first compound 0.05 µM
  relative viability: 0.795
HCC-15; first compound 0.1581 µM
  relative viability: 0.977
HCC-15; first compound 0.5 µM
  relative viability: 0.831
COR-L 105; first compound 0.01581 µM
  relative viability: 0.317
COR-L 105; first compound 0.05 µM
  relative viability: 0.368
COR-L 105; first compound 0.1581 µM
  relative viability: 0.322
COR-L 105; first compound 0.5 µM
  relative viability: 0.339
HCC-78; first compound 0.005 µM
  relative viability: 0.683
HCC-78; first compound 0.01581 µM
  relative viability: 0.772
HCC-78; first compound 0.05 µM
  relative viability: 0.851
HCC-78; first compound 0.1581 µM
  relative viability: 1.58
HCC-78; first compound 0.5 µM
  relative viability: 0.455
NCI-H1755; first compound 0.005 µM
  relative viability: 0.945
NCI-H1755; first compound 0.01581 µM
  relative viability: 0.991
NCI-H1755; first compound 0.05 µM
  relative viability: 1.03
NCI-H1755; first compound 0.1581 µM
  relative viability: 1.02
NCI-H1755; first compound 0.5 µM
  relative viability: 1.02
ABC-1; first compound 0.005 µM
  relative viability: 1.33
ABC-1; first compound 0.01581 µM
  relative viability: 1.15
ABC-1; first compound 0.05 µM
  relative viability: 1.26
ABC-1; first compound 0.1581 µM
  relative viability: 1.16
ABC-1; first compound 0.5 µM
  relative viability: 1.22
NCI-H2023; first compound 0.005 µM
  relative viability: 0.731
NCI-H2023; first compound 0.01581 µM
  relative viability: 0.97
NCI-H2023; first compound 0.05 µM
  relative viability: 0.878
NCI-H2023; first compound 0.1581 µM
  relative viability: 0.634
NCI-H2023; first compound 0.5 µM
  relative viability: 0.768
NCI-H1975; first compound 0.005 µM
  relative viability: 0.792
NCI-H1975; first compound 0.01581 µM
  relative viability: 0.871
NCI-H1975; first compound 0.05 µM
  relative viability: 0.864
NCI-H1975; first compound 0.1581 µM
  relative viability: 0.755
NCI-H1975; first compound 0.5 µM
  relative viability: 0.723
NCI-H358; first compound 0.005 µM
  relative viability: 0.476
NCI-H358; first compound 0.01581 µM
  relative viability: 0.563
NCI-H358; first compound 0.05 µM
  relative viability: 0.479
NCI-H358; first compound 0.1581 µM
  relative viability: 0.435
NCI-H358; first compound 0.5 µM
  relative viability: 0.499
EMC-BAC-2; first compound 0.005 µM
  relative viability: 0.954
EMC-BAC-2; first compound 0.01581 µM
  relative viability: 0.875
EMC-BAC-2; first compound 0.05 µM
  relative viability: 0.871
EMC-BAC-2; first compound 0.1581 µM
  relative viability: 0.675
EMC-BAC-2; first compound 0.5 µM
  relative viability: 0.908
UMC-11; first compound 0.005 µM
  relative viability: 0.901
UMC-11; first compound 0.01581 µM
  relative viability: 0.983
UMC-11; first compound 0.05 µM
  relative viability: 1.01
UMC-11; first compound 0.5 µM
  relative viability: 0.839
EPLC-272H; first compound 0.005 µM
  relative viability: 0.854
EPLC-272H; first compound 0.01581 µM
  relative viability: 0.844
EPLC-272H; first compound 0.05 µM
  relative viability: 0.938
EPLC-272H; first compound 0.1581 µM
  relative viability: 0.806
EPLC-272H; first compound 0.5 µM
  relative viability: 0.671
NCI-H2126; first compound 0.005 µM
  relative viability: 0.686
NCI-H2126; first compound 0.01581 µM
  relative viability: 0.784
NCI-H2126; first compound 0.05 µM
  relative viability: 0.755
NCI-H2126; first compound 0.1581 µM
  relative viability: 0.559
NCI-H2126; first compound 0.5 µM
  relative viability: 0.774
HOP-62; first compound 0.005 µM
  relative viability: 0.932
HOP-62; first compound 0.01581 µM
  relative viability: 0.944
HOP-62; first compound 0.05 µM
  relative viability: 0.994
HOP-62; first compound 0.1581 µM
  relative viability: 0.787
HOP-62; first compound 0.5 µM
  relative viability: 0.87
NCI-H322M; first compound 0.005 µM
  relative viability: 0.574
NCI-H322M; first compound 0.01581 µM
  relative viability: 0.649
NCI-H322M; first compound 0.05 µM
  relative viability: 0.615
NCI-H322M; first compound 0.1581 µM
  relative viability: 0.525
NCI-H322M; first compound 0.5 µM
  relative viability: 0.65
NCI-H2085; first compound 0.005 µM
  relative viability: 0.66
NCI-H2085; first compound 0.01581 µM
  relative viability: 0.769
NCI-H2085; first compound 0.05 µM
  relative viability: 0.774
NCI-H2085; first compound 0.1581 µM
  relative viability: 0.579
NCI-H2085; first compound 0.5 µM
  relative viability: 0.627
NCI-H3122; first compound 0.005 µM
  relative viability: 0.972
NCI-H3122; first compound 0.01581 µM
  relative viability: 0.979
NCI-H3122; first compound 0.05 µM
  relative viability: 0.989
NCI-H3122; first compound 0.1581 µM
  relative viability: 1.16
NCI-H3122; first compound 0.5 µM
  relative viability: 1.03
CAL-12T; first compound 0.005 µM
  relative viability: 0.563
CAL-12T; first compound 0.01581 µM
  relative viability: 0.752
CAL-12T; first compound 0.05 µM
  relative viability: 0.666
CAL-12T; first compound 0.5 µM
  relative viability: 0.784
LXF-289; first compound 0.005 µM
  relative viability: 0.888
LXF-289; first compound 0.01581 µM
  relative viability: 0.886
LXF-289; first compound 0.05 µM
  relative viability: 0.902
LXF-289; first compound 0.1581 µM
  relative viability: 0.946
LXF-289; first compound 0.5 µM
  relative viability: 0.905
NCI-H1666; first compound 0.005 µM
  relative viability: 0.561
NCI-H1666; first compound 0.01581 µM
  relative viability: 0.621
NCI-H1666; first compound 0.05 µM
  relative viability: 0.641
NCI-H1666; first compound 0.1581 µM
  relative viability: 0.607
NCI-H1666; first compound 0.5 µM
  relative viability: 0.84
NCI-H1915; first compound 0.005 µM
  relative viability: 0.992
NCI-H1915; first compound 0.01581 µM
  relative viability: 0.928
NCI-H1915; first compound 0.05 µM
  relative viability: 0.946
NCI-H1915; first compound 0.1581 µM
  relative viability: 0.965
NCI-H1915; first compound 0.5 µM
  relative viability: 0.882

— the supplement of paper PMC10307832
